# In patent publication US20040024033A1 (priority 1998, published 2004):
# Like-named read-outs stand apart in the source and are kept apart here.
# Assays:
# [1] = Determination of the single i.v. dose MTD in normal mice; type: in vivo, normal female BALB/c mice; details: for Body Weight Δ: mean ± SD
# Protocol: (§1) For the MTD determination, female BALB/c nude mice or BALB/c mice (obtained from Novartis Animal Farm, Sisseln, Switzerland) are treated once intravenously with epothilone B (n=3 per dose group). The dosage is increased (2, 4, 6, 8, 10 and 12 mg/kg) and the mice are observed for the presentation of overt toxic effects for 10 days after drug treatment.
# Epothilone B is given as a single i.v. bolus dose at 2, 4, 6, 8, 10 or 12 mg/kg. Survival and body weights of the mice are monitored daily. Changes (Δ) in body weights are determined comparing the last measured body weight to that before treatment.
# [2] = Determination of the single i.v. dose MTD in nude mice; type: in vivo, female BALB/c nude mice; details: mean ± SD
# Protocol: as §1
# Epothilone B is given as a single i.v. bolus dose at 2, 4, 6, 8, 10 or 12 mg/kg. Survival and body weights of the mice are monitored daily. Changes (A) in body weights are determined comparing the last measured body weight to that before treatment.
# [3] = tested on: human estrogen-dependent ZR-75-1 breast tumor; assay: Antitumor effect against s.c. transplanted ZR-75-1 tumors; type: in vivo, female BALB/c nude mice
# Protocol: (§2) Female or male BALB/c nu/nu (nude) mice are kept under sterile conditions (10 to 12 mice per Type III cage) with free access to food and water. Mice weigh between 20 and 25 grams at the time of tumor implantation. Tumors are established by subcutaneous injection of cells (minimum 2×10^6 cells in 100 μl PBS or medium) in carrier mice (4-8 mice per cell line). The resulting tumors are serially passaged for a minimum of three consecutive transplantations prior to start of treatment. Tumor fragments (approx. 25 mg) are implanted s.c. into the left flank of animals with a 13-gauge trocar needle while the mice are exposed to Forene (Abbott, Switzerland) anesthesia.
# (§3) Tumor growth and body weights are monitored once or twice weekly. All treatments are administered intravenously (i.v.) and are initiated when a mean tumor volume of approximately 100 to 250 mm^3 is attained, depending upon the tumor type. Tumor volumes are determined using the formula […] (see Cancer Chemother. Pharmacol. 24:148-154, [1989]). Treatments with epothilone B vary the dose and the frequency of administration. Comparator agents are administered according to previously determined optimal treatment regimens. In addition to presenting changes in tumor volumes over the course of treatment, antitumor activity is expressed as T/C% (mean increase of tumor volumes of treated animals divided by the mean increase of tumor volumes of control animals multiplied by 100). Tumor regression (%) represents the smallest mean tumor volume compared to the mean tumor volume at the start of treatment, according to the formula Regression (%)=(1−Vend/Vstart)×100 (Vend=final mean tumor volume, Vstart=mean tumor volume at the start of treatment. Any animals in which the tumor has reached a size exceeding approximately 1.5 to 2.5 cm^3 are sacrificed. Details can be found below.
# Tumor fragments of approximately 25 mg are implanted into the left flank of each female nude mouse (n=6 per group); a subcutaneous estrogen pellet is placed in the opposite flank. Treatments are started on day 19 after tumor transplantation. epothilone B is administered at 1, 2 or 4 mg/kg, i.v., either once per week (days 19, 26 and 33) or every second week (days 19 and 33). Data presented are from animals surviving to day 47, the last day of controls. Antitumor activity is expressed as T/C% (mean increase of tumor volumes of treated animals divided by the mean increase of tumor volumes of control animals multiplied by 100). Tumor regression (%) represents the final mean tumor volume compared to the mean tumor volume at the start of treatment. Changes (A) in tumor volume represent the tumor volume on the last treatment day minus the tumor volume on the first treatment day.
# [4] = tested on: human COLO 205 colon tumors; type: in vivo, female BALB/c nude mice; details: 4 mg/kg, day 32
# Protocol: as §2, §3
# Tumor fragments of approximately 25 mg are implanted into the left flank of each female nude mouse (n=7 per group); a subcutaneous estrogen pellet is placed on the opposite flank. Treatments are started on day 14 after tumor transplantation. epothilone B is administered at 4 mg/kg, i.v., either once or once per week (days 14, 21, 28) or every second week (days 14 and 28). 5-fluorouracil is administered i.v. at 75 mg/kg on days 14, 21, 28. Data presented are from animals surviving to day 32, four days after the last treatments. Antitumor activity is expressed as T/C% (mean increase of tumor volumes of treated animals divided by the mean increase of tumor volumes of control animals multiplied by 100). Tumor regression (%) represents the final mean tumor volume compared to the mean tumor volume at the start of treatment. Changes (A) in tumor volumes represent the tumor volume on the last treatment day minus the tumor volume on the first treatment day.
# [5] = GLP toxicology study in dogs; type: in vivo; details: dog
# Protocol: The starting dose level is 0.3 mg/m^2. This dose is calculated as one-third of the toxic dose low (TDL) in the most sensitive species studied which, for epothilone B, is the dog. […] Using a factor of 20 to convert mg/kg in the dog to mg/m^2 in humans, this starting dose is calculated as: […]
# [6] = tested on: A549 non small cell lung tumors
# Protocol: 3-10 million cells are implanted s.c. into the right axillary (lateral) region of outbred athymic (nu/nu) mice, and are allowed to grow until a tumor volume of approximately 100 mm^3 is established. Epothilone B is formulated in 1% DMSO in 5% glucose in distilled water (D5W), and administered i.v. either once only, once per week, 3 times per week, or 5 times per week. Positive controls are carried out with clinical formulations of TAXOL® diluted 6 fold with D5W and administered i.v. 3×/week.
# Antitumor activity is expressed as % T/C (comparing Δ tumor volumes for treatment group to vehicle control group) at the end of the experiment. Regressions are calculated using the formula: −(T/T0−1)×100% , where T is the tumor volume for the treatment group at the end of the experiment, and T0 is the tumor volume at the beginning of the experiment. Statistical significance is evaluated using a one-tailed Student's t-test.
# Treatments are started on day 16 post implantation (10 million cells/animal). Epothilone B is administered i.v. once at 6 mg/kg (day 16), once weekly at 4 mg/kg (days 16, 23, and 30), three times per week at 1.5 mg/kg (days 16, 18, 21, 23, 25, 28, 30, 32, and 35), or five times per week at 0.5 mg/kg (days 16-18, 21-25, 28-32, and 35-36). TAXOL® is administered i.v. three times per week at 20 mg/kg (days 16, 18, 21, 23, 25, 28, 30, 32, and 35) as split doses of 10 mg/kg given one hour apart. Vehicle control (1% DMSO/D5W) is administered i.v. three times per week (days 16, 18, 21, 23, 25, 28, 30, 32, and 35). All final data are recorded on day 37. A single asterisk (*) indicates p<0.05, and a double asterisk (**) indicates p<0.01, using a one-tailed Student's t-Test.
# [7] = Experiment 1, 6 mg/kg single i.v. bolus
# [8] = Experiment 1, 8 mg/kg single i.v. bolus
# [9] = Experiment 1, 10 mg/kg single i.v. bolus
# [10] = Experiment 1, 12 mg/kg single i.v. bolus
# [11] = Experiment 2, 2 mg/kg single i.v. bolus
# [12] = Experiment 2, 4 mg/kg single i.v. bolus
# [13] = Experiment 2, 6 mg/kg single i.v. bolus
# [14] = Experiment 2, 8 mg/kg single i.v. bolus
# [15] = 1 mg/kg, i.v. every 7 days, day 47
# [16] = 2 mg/kg, i.v. every 7 days, day 47
# [17] = 4 mg/kg, i.v. every 7 days, day 47
# [18] = 4 mg/kg, i.v. every 14 days, day 47
smiles,measurement,setting,value
C/C(=C\c1csc(C)n1)[C@@H]1C[C@@H]2O[C@]2(C)CCC[C@H](C)[C@H](O)[C@@H](C)C(=O)C(C)(C)[C@@H](O)CC(=O)O1 [epothilone B],Mortalities,[1]; [7],1/3
same,Body Weight Δ,[1]; [7],-6.1 ± 0.9 g
same,Mortalities,[1]; [8],3/3
same,Body Weight Δ,[1]; [8],-5.1 ± 3.2 g
same,Mortalities,[1]; [9],3/3
same,Body Weight Δ,[1]; [9],-5.6 ± 0.6 g
same,Mortalities,[1]; [10],3/3
same,Body Weight Δ,[1]; [10],-5.4 ± 2.9 g
same,Mortalities,[1]; [11],0/3
same,Body Weight Δ,[1]; [11],2.3 ± 0.6 g
same,Mortalities,[1]; [12],0/3
same,Body Weight Δ,[1]; [12],1.3 ± 0.6 g
same,Mortalities,[1]; [13],2/3
same,Body Weight Δ,[1]; [13],-5.3 ± 0.6 g
same,Mortalities,[1]; [14],3/3
same,Body Weight Δ,[1]; [14],-5.0 ± 1.0 g
same,Body Weight Δ,[2]; 2 mg/kg single i.v. bolus,1.0 ± 0.5 g
same,Body Weight Δ,[2]; 4 mg/kg single i.v. bolus,-0.4 ± 0.6 g
same,Body Weight Δ,[2]; 6 mg/kg single i.v. bolus,-1.0 ± 0.5 g
same,Body Weight Δ,[2]; 8 mg/kg single i.v. bolus,-3.8 ± 2.7 g
same,Body Weight Δ,[2]; 10 mg/kg single i.v. bolus,-5.6 ± 3.3 g
same,Body Weight Δ,[2]; 12 mg/kg single i.v. bolus,-5.1 ± 0.6 g
same,Regression,[3]; [15],none
same,T/C (%),[3]; [15],86%
same,Δ Body Weight,[3]; [15],0.3 g
same,Regression,[3]; [16],none
same,T/C (%),[3]; [16],40%
same,Δ Body Weight,[3]; [16],-3.5 g
same,T/C (%),[3]; [17],1%
same,Δ Body Weight,[3]; [17],-1.2 g
same,Regression,"[3]; 4 mg/kg, i.v. every 7 days, transient",−8%
same,Regression,[3]; [18],none
same,T/C (%),[3]; [18],46%
same,Δ Body Weight,[3]; [18],-1.6 g
same,T/C,[4]; i.v. every 7 days,Regres-
same,T/C,[4]; i.v. every 14 days,Regres-
same,T/C,[4]; i.v. once,Regres-
same,toxic dose low (TDL),"[5]; most sensitive species, estimated",~0.5 mg/kg
same,Mortalities,"[5]; 0.1 mg/kg, repeated once 3 weeks later (lower of the 2 doses)",no mortalities
same,body weight loss,[6]; 0.5 mg/kg i.v. 5x/week,23%
same,Dead/Total,[6]; 1.5 mg/kg i.v. 3x/week,all animals have to be euthanatized in the first week of the experiment due to toxicity
same,body weight loss,[6]; 4 mg/kg i.v. 1x/week,13%
same,% Regression,"[6]; 6 mg/kg i.v. once, day 37",none
same,% T/C,"[6]; 6 mg/kg i.v. once, day 37",41%
same,Dead/Total,"[6]; 6 mg/kg, i.v. once",0/8
